These results are taken from patent US6696441B1, “Inhibition of p53-induced stress response” (The Regents of the University of California, priority 2000, dated 2004).

For data set [1], the system named is Chronic lymphocytic leukemia [CLL] cells. The data set can be described thus: Protection against spontaneous apoptosis and apoptosis induced by fludarabine (PI negative and DiOC6 high cells by FACS). Format: cell-based, human. The following applies: one micromolar, 3 days culture, FIG. 2; for effect on untreated CLL cells (spontaneous apoptosis): PI negative and DiOC6 high cells. From the text:
(§1) The malignant lymphocytes from two patients with chronic lymphocytic leukemia [CLL] were isolated by ficoll-hypaque sedimentation and suspended at a density of 1 million cells per milliliter in RPMI 1640 medium supplemented with 10% fetal bovine serum. Two hundred microliter aliquots of cells were dispersed in the wells of culture plates containing the indicated final concentrations of either PFT-α (“PFT-open”) or IBT (PFT-closed). After 3 days culture, viable cells were enumerated by fluorescence-activated cell sorting [FACS] after staining with propidium iodide [PI]. Viable cells excluded the dye [open circles]. In addition, cell metabolism was assessed by the ability of the cells to […] the tetrazolium dye MTT [closed squares].
Chronic lymphocytic leukemia [CLL] cells were cultured for 3 days as described in Example 2. Some of the cultures were supplemented with one micromolar of PFT-open or PFT-closed, as indicated. In the experiment shown in the bottom panel of FIG. 2, some of the cultures also contained the cytotoxic adenine nucleoside analog fludarabine [abbreviated F-AraA]. Fludarabine is the first line treatment for CLL, and the toxicity of the drug is dependent upon the p53 pathway. To assess healthy, viable cells, staining was done with both PI, as indicated in Example 2, and with the mitochondrial dye DiOC6. Cells that were both PI negative and DIOC6 high were enumerated by FACS.
Background: In flow cytometry, cells or beads pass a laser one at a time.

For data set [2], the system named is malignant lymphocytes from two patients with chronic lymphocytic leukemia [CLL]. Description: Effect on B-CLL viability (PI exclusion by FACS, MTT). Format: cell-based, human. The following applies: 3 days culture; viable cells by PI FACS and MTT; concentrations up to 100 micromolar; FIG. 1.
From the text: as §1

A short description of data set [3]: nmr time course of PFT-α in DMSO-d6. Format: physicochemical. Conditions: time course in DMSO-d6, proton nmr.
The subject of another data set is mice. Conditions: cited from earlier work.
A short description of data set [4]: Ring closure of PFT-α in protic solvents at room temperature. Format: physicochemical. As for the experimental part: (§2) The preparation of PFT-α was accomplished as shown in Scheme 1 by reacting 4-methyl-2-bromoacetophenone with 2-amino-4,5,6,7-tetrahydro-benzothiazole. Upon recrystallization of the PFT-α from isopropyl alcohol, it was noticed that PFT-α readily ring-closed completely to the imidazo[2,1-b]benzothiazole (IBT). Therefore, a subsequent investigation was undertaken to study the propensity of PFT-α to ring-close in protic solvents. […] Thus, PFT-α was dissolved in DMSO and water dilutions were made from this stock.

A short description of data set [5]: Cyclization of PFT-α to IBT in DMSO stock diluted with water, reversed phase HPLC at 25° C. over time. Format: physicochemical. As to the method:
as §2

As for `Cc1ccc(-c2cn3c4c(sc3n2)CCCC4)cc1` [IBT], the “effect on untreated CLL cells (spontaneous apoptosis)” value in data set [1] was “nearly equivalent effects”. In data set [1] (with F-AraA, compared with PFT-α), the “protective effect on CLL cells treated with F-AraA (fludarabine)” value was “less protective effects”. In addition, the “CLL survival / toxicity” value in data set [2] is “non-toxic”.
For `Cc1ccc(C(=O)Cn2c3c(sc2=N)CCCC3)cc1` [PFT-α], the “conversion of PFT-α to IBT” value in data set [3] is “spontaneous conversion of PFT-α to IBT”. The “protection from lethal genotoxic stress” value in the data set on mice (6-8 Gy of gamma radiation) is recorded as “protected mice from lethal genotoxic stress”. The “promotion of tumor formation” value in the data set with mice is listed as “without itself promoting the formation of tumors”. For the same compound, in data set [1], the “effect on untreated CLL cells (spontaneous apoptosis)” value is “nearly equivalent effects”. Further, in data set [4], the “propensity to ring-close in protic solvents” value is “begins cyclizing at room temperature immediately upon dissolution in protic solvents”. Further, the “CLL survival / toxicity” value in data set [2] is “dose-dependently reduced CLL survival”. In addition, the figures for the “% cyclized to IBT” value in data set [5] (Time 0 h), in data set [5] (Time 18 h) and in data set [5] (Time 48 h) were 5%, 28% and 42%, respectively.
